Data from ChEMBL document CHEMBL5247613, “Design, synthesis and biological evaluation of a new class of Hsp90 inhibitors vibsanin C derivatives” (Eur J Med Chem, 2022).
The source made the active and inactive calls. The calls are words filed in the database; no cut-off is given here.

Legend:
HL-60 [1] = test: Induction of apoptosis in human HL-60 cells assessed as early apoptotic cells at 1 uM by AnnexinV-FITC/PI staining based flow cytometry (reference value: 1.33%); format: functional
HL-60 [2] = test: Antiproliferative activity against human HL-60 cells assessed as reduction in cell viability incubated for 48 hrs by MTT assay; format: functional, cell-based; conditions: HL-60, 48 h
HL-60 [3] = test: Induction of apoptosis in human HL-60 cells assessed as viable cells at 5 uM by AnnexinV-FITC/PI staining based flow cytometry (reference value: 89.7%); format: functional; conditions: read-out: Activity
[4] = Toxicity in Kunming mouse assessed as effect on feeding habits at 500 mg/kg, ip administered as single dose; format: organism-based; conditions: in vivo
H22 [5] = test: Antitumor activity against mouse H22 cells xenografted in Kunming mouse assessed as reduction in tumor weight at 100 mg/kg, ip administered for 14 days; format: functional; conditions: H22, 336 h, time 14 day
[6] = Toxicity in Kunming mouse assessed as effect on heart at 5 to 500 mg/kg, ip administered as single dose by macroscopic autopsy analysis; format: organism-based; conditions: in vivo, dose 5-500 mg/kg
HL-60 [7] = test: Induction of apoptosis in human HL-60 cells assessed as viable cells at 1 uM by AnnexinV-FITC/PI staining based flow cytometry (reference value: 89.7%); format: functional; conditions: read-out: Activity
HL-60 [8] = test: Induction of apoptosis in human HL-60 cells assessed as early apoptotic cells at 5 uM by AnnexinV-FITC/PI staining based flow cytometry (reference value: 1.33%); format: functional
[9] = molecular target: T1, Heat shock protein HSP90 (Homo sapiens) (UniProt P07900+P08238); test: Inhibition of HSP90 in human HL-60 cells assessed as increase in HSP27 protein expression incubated for 24 hrs by western blot analysis; format: cell-based; conditions: dose 1-10 µM
A549 = test: Antiproliferative activity against human A549 cells assessed as reduction in cell viability incubated for 48 hrs by MTT assay; format: functional, cell-based; conditions: A549, 48 h
HL-60 [10] = test: Induction of apoptosis in human HL-60 cells assessed as necrotic cells at 10 uM by AnnexinV-FITC/PI staining based flow cytometry (reference value: 0.4%); format: functional
[11] = Toxicity in Kunming mouse assessed as injury at 500 mg/kg, ip administered as single dose; format: organism-based; conditions: in vivo
[12] = Toxicity in Kunming mouse assessed as effect on sign of illness at 500 mg/kg, ip administered as single dose; format: organism-based; conditions: in vivo
[13] = Solubility of the compound in aqueous NMR buffer; format: physicochemical
Reticulocyte = test: Inhibition of HSP90 in rabbit reticulocyte lysates at 10 uM incubated for 3 hrs by denatured luciferase refolding assay; format: subcellular; conditions: Oryctolagus cuniculus
H22 [14] = test: Antitumor activity against mouse H22 cells xenografted in Kunming mouse assessed as reduction in tumor volume at 100 mg/kg, ip administered for 14 days; format: functional; conditions: H22, 336 h, time 14 day
[15] = Toxicity in Kunming mouse assessed as pain at 500 mg/kg, ip administered as single dose; format: organism-based; conditions: in vivo
HL-60 [16] = test: Induction of apoptosis in human HL-60 cells assessed as necrotic cells at 5 uM by AnnexinV-FITC/PI staining based flow cytometry (reference value: 0.4%); format: functional
SMMC-7721 = test: Antiproliferative activity against human SMMC-7721 cells assessed as reduction in cell viability incubated for 48 hrs by MTT assay; format: functional, cell-based; conditions: SMMC-7721, 48 h
HL-60 [17] = test: Induction of apoptosis in human HL-60 cells assessed as early apoptotic cells at 10 uM by AnnexinV-FITC/PI staining based flow cytometry (reference value: 1.33%); format: functional
[18] = Toxicity in Kunming mouse xenografted with mouse H22 cells assessed as body weight loss at 100 mg/kg, ip administered for 14 days; format: organism-based; conditions: in vivo, 336 h, time 14 day
[19] = molecular target: T1, Heat shock protein HSP90 (Homo sapiens); test: Inhibition of HSP90 in human HL-60 cells assessed as decrease in CDK4 protein expression incubated for 24 hrs by western blot analysis; format: cell-based; conditions: dose 1-10 µM
[20] = Inhibition of HSP90 in rabbit reticulocyte lysates incubated for 3 hrs by denatured luciferase refolding assay; format: subcellular, Oryctolagus cuniculus
HL-60 [21] = test: Induction of apoptosis in human HL-60 cells assessed as necrotic cells at 1 uM by AnnexinV-FITC/PI staining based flow cytometry (reference value: 0.4%); format: functional
[22] = Toxicity in Kunming mouse assessed as normal animal behaviour at 500 mg/kg, ip administered as single dose; format: organism-based; conditions: in vivo
HL-60 [23] = test: Induction of apoptosis in human HL-60 cells assessed as late apoptotic cells at 10 uM by AnnexinV-FITC/PI staining based flow cytometry (reference value: 8.57%); format: functional
HL-60 [24] = test: Induction of apoptosis in human HL-60 cells assessed as late apoptotic cells at 5 uM by AnnexinV-FITC/PI staining based flow cytometry (reference value: 8.57%); format: functional
[25] = Toxicity in Kunming mouse assessed as effect on kidney at 5 to 500 mg/kg, ip administered as single dose by macroscopic autopsy analysis; format: organism-based; conditions: in vivo, dose 5-500 mg/kg
SW480 = test: Antiproliferative activity against human SW480 cells assessed as reduction in cell viability incubated for 48 hrs by MTT assay; format: functional, cell-based; conditions: SW480, 48 h
HL-60 [26] = test: Induction of apoptosis in human HL-60 cells assessed as early apoptotic cells at 20 uM by AnnexinV-FITC/PI staining based flow cytometry (reference value: 1.33%); format: functional
HL-60 [27] = test: Induction of apoptosis in human HL-60 cells assessed as late apoptotic cells at 1 uM by AnnexinV-FITC/PI staining based flow cytometry (reference value: 8.57%); format: functional
MCF7 = test: Antiproliferative activity against human MCF7 cells assessed as reduction in cell viability incubated for 48 hrs by MTT assay; format: functional, cell-based; conditions: MCF7, 48 h
HL-60 [28] = test: Induction of apoptosis in human HL-60 cells assessed as necrotic cells at 20 uM by AnnexinV-FITC/PI staining based flow cytometry (reference value: 0.4%); format: functional
[29] = Toxicity in ip dosed Kunming mouse administered as single dose; format: organism-based; conditions: in vivo
HL-60 [30] = test: Induction of apoptosis in human HL-60 cells assessed as decrease in Bcl2 protein expression at 1 to 10 uM incubated for 24 hrs by western blot analysis; format: functional, cell-based; conditions: dose 1-10 µM
HL-60 [31] = test: Induction of apoptosis in human HL-60 cells assessed as increase in caspase-3 cleavage incubated for 24 hrs by western blot analysis; format: functional, cell-based; conditions: dose 1-10 µM
HL-60 [32] = test: Induction of apoptosis in human HL-60 cells assessed as increase in PARP cleavage incubated for 24 hrs by western blot analysis; format: functional, cell-based; conditions: dose 1-10 µM
[33] = Toxicity in Kunming mouse assessed as effect on lung at 5 to 500 mg/kg, ip administered as single dose by macroscopic autopsy analysis; format: organism-based; conditions: in vivo, dose 5-500 mg/kg
HL-60 [34] = test: Induction of apoptosis in human HL-60 cells assessed as late apoptotic cells at 20 uM by AnnexinV-FITC/PI staining based flow cytometry (reference value: 8.57%); format: functional
[35] = Toxicity in Kunming mouse assessed as effect on liver at 5 to 500 mg/kg, ip administered as single dose by macroscopic autopsy analysis; format: organism-based; conditions: in vivo, dose 5-500 mg/kg
HL-60 [36] = test: Induction of apoptosis in human HL-60 cells assessed as viable cells at 10 uM by AnnexinV-FITC/PI staining based flow cytometry (reference value: 89.7%); format: functional; conditions: read-out: Activity
[37] = Toxicity in Kunming mouse assessed as effect on spleen at 5 to 500 mg/kg, ip administered as single dose by macroscopic autopsy analysis; format: organism-based; conditions: in vivo, dose 5-500 mg/kg
HL-60 [38] = test: Induction of apoptosis in human HL-60 cells assessed as increase in Bax protein expression at 1 to 10 uM incubated for 24 hrs by western blot analysis; format: functional, cell-based; conditions: dose 1-10 µM
[39] = Toxicity in Kunming mouse assessed as effect on physical appearance at 500 mg/kg, ip administered as single dose; format: organism-based; conditions: in vivo
HL-60 [40] = test: Induction of apoptosis in human HL-60 cells assessed as viable cells at 20 uM by AnnexinV-FITC/PI staining based flow cytometry (reference value: 89.7%); format: functional; conditions: read-out: Activity

Molecule `CC(C)=CCC[C@@]1(C)CC=C(CF)c2oc(C)cc2[C@@H]1/C=C/OC(=O)C=C(C)C` has an Activity (HL-60 [1]) of 1.57%, an IC50 (HL-60 [2]) of 3.69 µM and a viability at 5 µM (HL-60 [3]) of 83%. The Activity [4] was “Non-Toxic”, the inhibition in vivo at 100 mg/kg (H22 [5]) was 42.4% and the Activity [6] was “Non-Toxic”. The viability at 1 µM (HL-60 [7]) was 87.1%, the Activity (HL-60 [8]) was 2.87% and the inhibition [9] was “Dose-Dependent Effect”. The IC50 (A549) was > 40 µM, the Activity (HL-60 [10]) was 6.29% and the Activity [11] was “Non-Toxic”. For the same molecule, the Activity [12] was “Non-Toxic”, the solubility [13] was “Insoluble” and the inhibition (Reticulocyte) was 72.2%. The inhibition in vivo at 100 mg/kg (H22 [14]) was 48.4%, the Activity [15] was “Non-Toxic” and the Activity (HL-60 [16]) was 0.22%. The IC50 (SMMC-7721) was 11.9 µM, the Activity (HL-60 [17]) was 4.98% and the Activity [18] was “Non-Toxic”. The inhibition [19] was “Dose-Dependent Effect”, the IC50 [20] was 0.39 µM and the Activity (HL-60 [21]) was 0.27%. For the same molecule, the Activity [22] was “Non-Toxic”, the Activity (HL-60 [23]) was 50.4% and the Activity (HL-60 [24]) was 12.8%. For the same molecule, the Activity [25] was “Non-Toxic”, the IC50 (SW480) was 20 µM and the Activity (HL-60 [26]) was 3.78%. The Activity (HL-60 [27]) was 11%, the IC50 (MCF7) was 17.7 µM and the Activity (HL-60 [28]) was 3.45%. For the same molecule, the LD50 [29] was > 500 mg/kg, the Activity (HL-60 [30]) was “Active” and the Activity (HL-60 [31]) was “Dose-Dependent Effect”. For the same molecule, the Activity (HL-60 [32]) was “Dose-Dependent Effect”, the Activity [33] was “Non-Toxic” and the Activity (HL-60 [34]) was 73.3%. The Activity [35] was “Non-Toxic”, the viability at 10 µM (HL-60 [36]) was 38.4% and the Activity [37] was “Non-Toxic”. The Activity (HL-60 [38]) was “Active”, the Activity [39] was “Non-Toxic” and the viability at 20 µM (HL-60 [40]) was 19.5%.
